We go through four molecules from ChEMBL document CHEMBL4602622, “Serendipitous discovery of aryl boronic acids as β-lactamase inhibitors” (Bioorg Med Chem Lett, 2020).

SMILES strings stand for the structures.

By IC50 is commonly meant the midpoint of a concentration-inhibition curve. Lower therefore signals higher potency.

This experiment in a line: Inhibition of Pseudomonas aeruginosa AmpC.
On to `C1=NC2(CCc3ccc(-c4ccccc4)cc3C2)CN1` (stereo in doubt), for which the IC50 was greater than 100 µM.
In turn, `O=C(c1nc(-c2ccccc2)cs1)N1CCC(c2ccccn2)C1` (stereo in doubt) gave an IC50 greater than 100 µM.
The figure for `C1=NC2(CCc3ccc(-c4ccccc4)cc3C2)CN1` (stereo in doubt; 1) is 15 µM; for `O=C(c1nc(-c2ccccc2)cs1)N1CCC(c2ccccn2)C1` (stereo in doubt; 2) it is 43 µM.
